“Also recorded” adds a separate entry of the source. Like-named read-outs stand apart in the source and are kept apart here. No end group written: not given here.
Assays:
PSA cell membrane = assay: Membrane permeabilization (OD260 of filtrates); assay type: cell-based, Pseudomonas syringae pv. actinidiae; settings: 1 MIC, 120 min, relative to Triton X-100; increased from 2.61%
Protocol: Membrane permeabilization was determined according to a method of Dang et al. (2020, Antimicrobial peptides from the edible insect Musca domestica and their preservation effect on chilled pork). PSA cells (10^7 CFU/mL) in a logarithmic growth phase were incubated with 1 MIC of the AMP synthesized in Example 1 at 28° C. for 120 min. The resulting cultures were filtered through a 0.22 μm membrane and OD260 value of the filtrates were determined. 10 mM of a phosphate-buffered saline (PBS) and Triton X-100 were used as negative and positive controls, respectively. The membrane permeabilization was calculated according to the following formula: Permeabilization (%)=(OD260 AMP/OD260 Triton)×100%.

PSA genomic DNA = assay: DNA gel retardation; assay type: binding, Pseudomonas syringae pv. actinidiae; settings: 200 ng DNA, 15.63 ng to 1,000 ng AMP, 28° C., 30 min
Protocol: A PSA genomic DNA (200 ng) was incubated with different amounts of the AMP (15.63 ng to 1,000 ng) synthesized in Example 1 at 28° C. for 30 min. At the same time, sterile water was set as a control. After electrophoresis, DNA gel retardation was observed under UV illumination using a Bio-Rad Universal Hood II Gel Doc XR system (Hercules, USA).

[1] = test system: defense genes (PR1 and PR-10); assay: RT-qPCR of defense genes in kiwifruit leaves; assay type: in vivo; settings: PSA-inoculated kiwifruit leaves, 48 h
Protocol: The expression of defense genes (PRI and PR-10) in kiwifruit leaves was detected by RT-qPCR. The leaves were collected 48 h after AMP inoculation with PSA, and a total RNA was extracted from three leaf discs for each replicate, and cDNA was synthesized. The RT-qPCR was conducted using the method in Example 4. Actin was used as a reference gene. […] A relative expression level of genes was calculated by a 2-AACT method.

PSA cells [2] = assay: Calcium ion leakage of PSA cells; assay type: cell-based, Pseudomonas syringae pv. actinidiae; settings: after 120 min of treatment; increased from 8.70 μM
PSA [3] = assay: MIC determination by broth microdilution; assay type: cell-based, Pseudomonas syringae pv. actinidiae; settings: PSA 10^5 CFU/mL, LB, 28° C., 24 h, OD600
Protocol: The MIC was determined by a broth microdilution method (Mishra et al., 2017, Individual and combined effects of engineered peptides and antibiotics on Pseudomonas aeruginosa biofilms). PSA cells in a logarithmic growth phase were diluted to 10^5 colony forming units (CFU)/mL with an LB liquid medium (including 10 g/L peptone, 5 g/L yeast extract powder, and 10 g/L NaCl), and added into a 96-well microplate that was preloaded with different concentrations of the AMP synthesized in Example 1 (1.56 μg/mL to 200 μg/mL) or agricultural streptomycin (AS) (125 μg/mL to 4,000 μg/mL). After incubation at 28° C. for 24 h, an absorbance at 600 nm (OD600) of each sample was measured using a Multiskan FC microplate reader (Thermo Fisher Scientific, Waltham, USA); while sterile water was used as a control.

PSA cells [4] = assay: ROS level (DCFH-DA fluorescence); assay type: cell-based, Pseudomonas syringae pv. actinidiae
Protocol: The reactive oxygen species (ROS) level of PSA treated with the AMP synthesized in Example 1 was evaluated using a ROS detection kit (LabLead, Beijing, China). PSA cells (10^7 CFU/mL) were incubated with different concentrations of the AMPs (0.5 MIC to 2 MICs) at 28° C. for 2 h. At the same time, sterile water was set as a control. The cells were resuspended in PBS and then incubated with 10 μM of 2′,7′-dichlorodihydrofluorescein diacetate (DCFH-DA) for 30 min at 28° C. Fluorescence intensity was measured at excitation/emission wavelengths of 485 nm/525 nm using a SpectraMax i3 microplate reader (Molecular Devices, San Jose, USA).

PSA cells [5] = assay: Membrane depolarization with DiSC3(5); assay type: cell-based, Pseudomonas syringae pv. actinidiae; settings: 1 MIC, 28° C., 30 min
Protocol: Membrane depolarization was measured using a membrane potential-sensitive cyano dye 3,3′-dipropylthiadicarbocyanine iodide (DiSC3(5)) according to a method of Juba et al. (2015, Helical cationic antimicrobial peptide length and its impact on membrane disruption). PSA cells (10^7 CFU/mL) were suspended in a PBS containing 50 μg/mL of the DiSC3(5) and added to a black 96-well microplate. The microplate was incubated in a SpectraMax i3 microplate reader (Molecular Devices, San Jose, USA), and monitored until fluorescence leveled off. 1 MIC of the AMP synthesized in Example 1 was added and incubated at 28° C. for 30 min; while the PBS was used as a control. The fluorescence intensity of each sample was measured at excitation/emission wavelengths of 622 nm/670 nm, respectively.

PSA [6] = assay type: cell-based, Pseudomonas syringae pv. actinidiae; settings: 3 h
Protocol: The EC50 was determined according to a method of Gupta et al. (2015, Short, synthetic cationic peptides have antibacterial activity against Mycobacterium smegmatis by forming pores in membrane and synergizing with antibiotics). The PSA cells (10^5 CFU/mL) in a logarithmic growth phase were added to a 96-well microplate that was preloaded with different concentrations of the AMP synthesized in Example 1 (0.39 μg/mL to 12.5 μg/mL) or AS (62.5 μg/mL to 2,000 μg/mL), and then incubated at 28° C. for 3 h. A serially diluted mixture was spread on the LB agar plate, incubated for 48 h, and the colonies were counted. The EC50 was calculated by plotting percent killing as a function of the lg of AMP concentrations.

PSA cells [7] = assay: SEM and TEM observation of PSA cells; assay type: cell-based, Pseudomonas syringae pv. actinidiae; settings: 1 MIC, 2 h, 28° C.
Protocol: Scanning electron microscopy (SEM) and Transmission electron microscopy (TEM) were used to observe the morphological and intracellular changes of the PSA cells treated with the AMP synthesized in Example 1. PSA cells (10^7 CFU/mL) were incubated with the AMP (1 MIC) for 2 h at 28° C.; while sterile water was used as a control. For SEM, cell samples were prepared according to a protocol of Juba et al. (2015, Helical cationic antimicrobial peptide length and its impact on membrane disruption) and observed under a Hitachi SU8100 SEM (Tokyo, Japan). For TEM, cell samples were prepared according to a method of Nguyen et al. (2021, Comparison of two transmission electron microscopy methods to visualize drug-induced alterations of gram-negative bacterial morphology) and observed under a Hitachi HT-7700 TEM (Tokyo, Japan).

[8] = test system: DNA replication (dnaA and dnaB) and DNA repair (recA and recN) genes; assay: RT-qPCR of DNA replication and repair genes; assay type: cell-based, Pseudomonas syringae pv. actinidiae; settings: 1 MIC, 28° C., 2 h
Protocol: PSA cells (10^7 CFU/mL) were incubated with 1 MIC of the AMP synthesized in Example 1 at 28° C. for 2 h. At the same time, sterile water was set as a control. A total RNA was extracted, and cDNA was synthesized using PrimeScript RT Master Mix (Takara, Dalian, China). The expression of DNA replication (dnaA and dnaB) and DNA repair (recA and recN) genes were detected by reverse transcription-quantitative PCR (RT-qPCR). The RT-qPCR was conducted with a mixed system including 10 μL of Masser Mix (Tsinke, Beijing, China), 0.8 μL of each primer (0.5 μM), 0.4 μL (200 ng) of the cDNA, and 8 μL of water. The reaction was conducted by: at 50° C. for 2 min; initial denaturation at 95° C. for 2 min; and at 95° C. for 15 sec, at 55° C. for 30 sec, and at 72° C. for 30 sec, conducting 40 cycles. 16S rRNA was used as a reference gene. A relative expression level of genes was calculated by a 2-AACT method.

PSA [9] = assay: Control effect and bacterial load on kiwifruit leaves inoculated with PSA; assay type: in vivo, Pseudomonas syringae pv. actinidiae on kiwifruit; settings: 1 MIC; for disease control effect: kiwifruit leaves inoculated with PSA, lesion area vs control; for bacterial load in leaves: kiwifruit leaves, 96 h
Protocol: The method of Bai et al. (2022, Application of phage therapy against red-fleshed kiwifruit canker) was selected to evaluate a control effect of the AMP synthesized in Example 1 on kiwifruit leaves inoculated with PSA. The leaves were injured with a syringe needle and covered with a filter paper (ϕ=1 cm) containing 50 μL of PSA (10^8 CFU/mL). After 2 h, 1 MIC of AMP or AS was added; while the PBS was used as a control. The kiwifruit plants were cultured for 96 h at 25±1° C., 70±5% relative humidity (RH), and a photoperiod of 16 h: 8 h. The lesion area and the number of colonies were counted every 48 h, and the disease control effect (%) was calculated using the following formula: Control effect (%)=(1−Lesion areatreatment/Lesion areacontrol)×100%
Bacterial load in leaves was determined according to a colony count method of Barrett-Manako et al. (2021, Real-time PCR and droplet digital PCR are accurate and reliable methods to quantify Pseudomonas syringae pv. actinidiae biovar 3 in kiwifruit infected plantlets). Leaves were collected, washed with sterile water, and homogenized with PBS. A homogenate was inoculated into a King's B solid medium (supplemented with nitrofurantoin at 12.5 μg/mL and cephalexin at 40 μg/mL). After incubation at 28° C. for 48 h, the colonies were counted to calculate lg CFU/cm^2. Colonies were confirmed by PCR using specific primers for the 16S-23SrDNA-ITS sequence of PSA (Table 1), and sequenced.

PSA [10] = assay type: cell-based, Pseudomonas syringae pv. actinidiae
Protocol: The samples in the wells with a concentration of greater than 1 MIC during the MIC determination in step 1 were spread on an LB agar plate (including 10 g/L peptone, 5 g/L yeast extract powder, 10 g/L NaCl, and 15 g/L agar), and the colonies were counted after incubation at 28° C. for 48 h.

PSA [11] = assay: Drug resistance of PSA to the AMP (repeated subculture, MIC change); assay type: cell-based, Pseudomonas syringae pv. actinidiae; settings: repeated treatment at 0.75, 1 and 1.25 MIC, 14 d
Protocol: Microbial resistance was determined according to a method of Steczko et al. (2009, Microbial inactivation properties of a new antimicrobial/antithrombotic catheter lock solution (citrate/methylene blue/parabens)). 10^5 CFU/mL of a PSA bacteria solution was treated with AMPs at final concentrations of 0.75 MIC, 1 MIC, and 1.25 MIC. After 24 h of incubation, the MIC was determined by microdilution assay. Subculture and MIC determination were conducted by the same method every day for a total of 14 d. The drug resistance of PSA was evaluated by observing changes of the MIC.

[12] = test system: intracellular esterase of PSA; assay: Intracellular esterase activity (FDA fluorescence); assay type: cell-based, Pseudomonas syringae pv. actinidiae; settings: 1 MIC, at 120 min
Protocol: The intracellular esterase activity of PSA was measured with fluorescein diacetate (FDA). PSA cells (10^7 CFU/mL) were added to a black 96-well microplate preloaded with 1 MIC of the AMP synthesized in Example 1. The cells in each well were mixed with 10 mM of the FDA and incubated at 28° C. for 10 min. Fluorescence intensity was measured at excitation wavelengths of 480 nm/530 nm using the SpectraMax i3 microplate reader (Molecular Devices, San Jose, USA), respectively.

## WWKLLRKL-NH2 [AMP, Trp-Trp-Lys-Leu-Leu-Arg-Lys-Leu-NH2]
PSA cell membrane
  permeabilization of the PSA cell membrane: 11.44%
PSA genomic DNA
  binding with PSA genomic DNA (gel retardation): bind to the genomic DNA of PSA and retard the migration of DNA in a concentration-dependent manner
[1]
  expression level of PR 1 relative to control: 1.38 times that of the control group
  expression level of PR-10 relative to control: 1.74 times that of the control
PSA cells [2]
  calcium ion leakage: 60.87 µM
PSA [3]
  MIC: 3.13 µg/mL
PSA cells [4]; 0.5 MIC to 2 MICs
  ROS fluorescence intensity, dose dependence: increased in a dose-dependent manner
PSA cells [4]; 2 MIC, 28° C., 2 h
  ROS fluorescence intensity relative to control: 4.22 times that of the control
PSA cells [5]
  membrane depolarization (DiSC3(5) fluorescence): significantly induced an increase in DiSC3 (5) fluorescence
PSA [6]
  EC50: 1.67 µg/mL
PSA cells [7]
  cell morphology and intracellular changes (SEM/TEM): notable alterations in cell morphology
[8]
  reduction of dnaA expression level vs control: 80.64%
  reduction of dnaB expression level vs control: 57.51%
  reduction of recA expression level vs control: 35.28%
  reduction of recN expression level vs control: 39.23%
PSA [9]
  disease control effect: 70.53%
  bacterial load in leaves: 2.95 lg CFU/cm^2
PSA [10]; 48 h
  MBC: 6.25 µg/mL
PSA [11]
  drug resistance of PSA (change of MIC): no drug resistance of PSA to AMP is observed; also recorded: no change was found in the MIC
[12]
  esterase (FDA) fluorescence intensity relative to control: 0.34 times that of the control

## agricultural streptomycin [AS, reference compound]
PSA [3]
  MIC: 500 µg/mL
PSA [9]
  disease control effect: 55.80%
  bacterial load in leaves: 4.48 lg CFU/cm^2
PSA [10]; LB agar plate, 28° C., 48 h colony count
  MBC: 1,000 μg/mL

Reference: patent US12448414B2, “Antimicrobial peptide (AMP) for controlling Pseudomonas syringae pv. actinidiae (PSA) and preparation method and use thereof” (Anhui Agricultural University, priority 2023, dated 2025)
